Reference: patent US20080019961A1, “Hedgehog signaling pathway antagonist cancer treatment” (Regents of the University of Michigan, priority 2006, published 2008)
Where two headings read alike, the source gives them in different places. Square brackets hold non-standard residues; d marks the D form. Peptide text beside a SMILES is read from it. * marks the point of attachment. Nle = CCCC[C@H](N)C(=O)O; Cbz = O=C(OCc1ccccc1)*

What was measured:
Format in all cases: cell-based, human
[1] = system: PTCH1, Gli1, Gli2 and HES1 mRNA; experiment: Hh and Notch pathway gene mRNA in mammospheres by real-time RT-PCR; details: for block of Shh-induced PTCH1, Gli1, Gli2 and HES1 expression: 3 μg/ml Shh with 300 nM Cyclopamine or 5 μM GSI; for block of DSL-induced HES1, PTCH1, Gli1 and Gli2 expression: 10 μM DSL with 5 μM GSI or 300 nM Cyclopamine
Protocol: Single cells from epithelial organoids were plated in 6-well ultra-low attachment plates (Coming) at a density of 100,000 viable cells/ml. Cells were cultured in 2 ml of a serumfree MEBM per well. […] Cells were incubated for 7 days in the presence of different treatments as follows. For the treatment with Hedgehog agonists and antagonist, Shh was used at 1.5 μg/ml, 3 μg/ml and 6 μg/ml in the presence or absence of 300 riM of CP or 5 μM of GSI. CP was used at 150 nM, 300 nM and 600 nM concentrations, and the control was 12% 1×PBS with 0.06% BSA. For the treatment with Notch agonists and antagonist, DSL was used at 10 μM in the presence or absence of 5 μM of GSI or 300 nM of CP, and the controls consisted of 10 μM of scrambled Notch peptide. All treatments were continued for 10 days, with agonists and antagonists added every two or three days when medium was changed.
Mammospheres were then collected for in vitro self-renewal assays and Real-time quantitative RT-PCR. For reverse-transcriptase reactions, 1 μg of total RNA from mammospheres or differentiated cells on collagen-coated plates was reverse transcribed with 200 U M-MLV Reverse Transcriptase (GibcoBRL) at 42° C. for 1 hour in the presence of 5 mM each of dATP, dCTP, dGTP and dTTP, 4 μl 5× 1 st strand buffer (GibcoBRL), 0.01M DDT, 1 U RNA Guard RNase inhibitor (GibcoBRL), and 2.5 µM random primers in a total volume of 20 μl. The reaction was terminated by heating to 95° C. for 3 minutes. Real-time quantitative PCR (TaqMan™) primers and probes were purchased from AppliedBiosytems as Assays-on-Demand™ Gene Expression Products. Real-time PCRs were performed following the supplier's instructions (Applied Biosystems). 20 μl of PCR mixture contained 10 μl of 2× Taqman™ universal PCR Master Mix, 1 μl of 20× working stock of gene expression assay mix, and 50 ng of RNA converted cDNA. PCR was performed in a ABI PRISM® 7900HT sequence detection system with 384-Well block module and automation accessory (Applied Biosystems) by incubation at 50° C. for 2 min and then 95° C. for 10 min followed by 40 amplification cycles (15 s of denaturation at 95° C. and 1 min of hybridization and elongation at 60° C.). The reaction for each sample was performed in quadruplicates. Fluorescence of the PCR products was detected by the same apparatus. The number of cycles that it takes for amplification plot to reach the threshold limit, the Ct-value was used for quantification. RPLP0 was used for normalization.
In order to determine whether activation of the Notch pathway could affect Hh targets, Notch signaling was activated by utilizing the DSL ligand which binds to all Notch receptors (Dontu et al., 2004).

[2] = system: Bmi-1 mRNA; experiment: Bmi-1 mRNA in mammospheres by real-time RT-PCR; details: for block of Shh-induced Bmi-1 expression: Shh with Cyclopamine or GSI
[3] = system: mammary stem/progenitor cells in mammospheres; experiment: Primary and secondary mammosphere formation (in vitro self-renewal assay)
[4] = system: mammosphere branching morphogenesis; experiment: Mammosphere branching morphogenesis in 3-D Matrigel culture; details: 300 nM Cyclopamine
Protocol: Briefly, 30 mammospheres were suspended in 1 ml of BD Matrigel™ Matrix (Cat. 354234, BD Biosciences, Palo Alto, Calif.) and Ham's F-12 medium (BioWbittaker) with 5% serum at a ratio of 1:1, and plated 1 ml of the mixture into one well of 24-well cold plates and each group of mammospheres was performed in quadruplicates. After the matrigel was solidified, 1 ml of Ham's F-12 medium (BioWhittaker) with 5% serum was added to the top of the matrigel. The experiments were repeated with mammospheres derived from at least three different patients.

Compound	block of Shh-induced PTCH1, Gli1, Gli2 and HES1 expression [1]	block of DSL-induced HES1, PTCH1, Gli1 and Gli2 expression [1]	block of DSL-induced Bmi-1 expression ([2]; DSL with GSI or Cyclopamine)	block of Shh-induced Bmi-1 expression [2]	block of the Shh effect on mammary stem cell self-renewal ([3]; 3 μg/ml Shh with 300 nM Cyclopamine or 5 μM GSI)	block of DSL-stimulated mammary stem cell self-renewal ([3]; 10 μM DSL with 5 μM GSI or 300 nM Cyclopamine)	effect on branch formation [4]	Cyclopamine inhibition of primary mammosphere formation on addition of Shh [3]	Cyclopamine inhibition of secondary mammosphere formation on addition of Shh [3]	block of DSL-stimulated mammary stem cell self-renewal [3]	block of the Shh effect on mammary stem cell self-renewal [3]	decrease of average cell number in primary mammospheres vs control [3]	decrease of average cell numbers per secondary mammosphere [3]	decrease of primary mammosphere formation vs control [3]	decrease of secondary mammospheres vs control [3]	effect of Cyclopamine on the effects of Gli1 or Gli2 overexpression [3]	effects on mammosphere formation, lowest dose [3]
CCCC[C@@H](C=O)NC(=O)[C@H](CC(C)C)NC(=O)[C@H](CC(C)C)NC(=O)OCc1ccccc1 [GSI, Z-Leu-Leu-Nle-CHO] (Cbz-Leu-Leu-[Nle]-aldehyde)	not	completely blocked	completely blocked	not	did not block	blocked	–	–	–	–	–	–	–	–	–	–	–
CC1=C2C[C@H]3[C@@H](CC=C4C[C@@H](O)CC[C@@]43C)[C@@H]2CC[C@]12O[C@@H]1C[C@H](C)CN[C@H]1[C@H]2C [Cyclopamine]	partially blocked	partially blocked and not	–	blocked	–	–	almost completely blocked branch formation	reversal of inhibition	reversed	not	blocked	51%	56%	45%	54%	unaffected	no effects
